Reference: ChEMBL document CHEMBL5724914, “Linking interpersonal differences in gut microbiota composition and drug biotransformation activity” (2024)

Assays:
[1] = (§1) The drug is tested on WLS-220 corresponding to human gut metagenome with ENA study accession number: PRJEB37062 and ENA sample accession number: ERS12561769 for biotransformation under anaerobic condition. The drug concentrations were measured over 9 timepoints collected between 0 and 24 hours of incubation by liquid-chromatography-coupled mass spectrometry (LC–MS); conditions: 2 µM
[2] = human gut metagenome, 24 h, 2 µM
[3] = as §1, with “WLS-069” for “WLS-220”, “ERS12561748” for “ERS12561769”; conditions: 2 µM
[4] = as §1, with “Z-026” for “WLS-220”, “to” for “to human gut”, “ERS12561825” for “ERS12561769”; conditions: 2 µM
[5] = human gut metagenome, 24 h, 2 µM; remark: listed apart in the source
[6] = human gut metagenome, 24 h, 2 µM; remark: listed apart in the source
[7] = as §1, with “WLS-052” for “WLS-220”, “ERS12561747” for “ERS12561769”; conditions: 2 µM
[8] = as §1, with “Z-004” for “WLS-220”, “to” for “to human gut”, “ERS12561804” for “ERS12561769”; conditions: 2 µM
[9] = as §1, with “WLS-073” for “WLS-220”, “ERS12561749” for “ERS12561769”; conditions: 2 µM
[10] = human gut metagenome, 24 h, 2 µM; remark: listed apart in the source
[11] = as §1, with “WLS-039” for “WLS-220”, “ERS12561746” for “ERS12561769”; conditions: 2 µM
[12] = human gut metagenome, 24 h, 2 µM; remark: listed apart in the source
[13] = human gut metagenome, 24 h, 2 µM; remark: listed apart in the source
[14] = as §1, with “WLS-310” for “WLS-220”, “ERS12561785” for “ERS12561769”; conditions: 2 µM
[15] = human gut metagenome, 24 h, 2 µM; remark: listed apart in the source
[16] = human gut metagenome, 24 h, 2 µM; remark: listed apart in the source
[17] = as §1, with “Z-017” for “WLS-220”, “mouse” for “human”, “ERS12561816” for “ERS12561769”; conditions: 2 µM
[18] = as §1, with “WLS-010” for “WLS-220”, “ERS12561743” for “ERS12561769”; conditions: 2 µM
[19] = human gut metagenome, 24 h, 2 µM; remark: listed apart in the source
[20] = as §1, with “WLS-240” for “WLS-220”, “ERS12561773” for “ERS12561769”; conditions: 2 µM
Also: call rule not given here.

Structure (SMILES): CCN(CC)C(C)CN1c2ccccc2Sc2ccccc21 (stereo not given) [ETHOPROPAZINE]
- Bacterial Biotransformation [1]: Compound metabolized
- Bacterial Biotransformation [2]: Compound metabolized
- Bacterial Biotransformation [3]: Compound metabolized
- Bacterial Biotransformation [4]: Compound NOT metabolized
- Bacterial Biotransformation [5]: Compound metabolized
- Bacterial Biotransformation [6]: Compound metabolized
- Bacterial Biotransformation [7]: Compound metabolized
- Bacterial Biotransformation [8]: Compound metabolized
- Bacterial Biotransformation [9]: Compound metabolized
- Bacterial Biotransformation [10]: Compound metabolized
- Bacterial Biotransformation [11]: Compound metabolized
- Bacterial Biotransformation [12]: Compound metabolized
- Bacterial Biotransformation [13]: Compound metabolized
- Bacterial Biotransformation [14]: Compound metabolized
- Bacterial Biotransformation [15]: Compound metabolized
- Bacterial Biotransformation [16]: Compound metabolized
- Bacterial Biotransformation [17]: Compound NOT metabolized
- Bacterial Biotransformation [18]: Compound metabolized
- Bacterial Biotransformation [19]: Compound NOT metabolized
- Bacterial Biotransformation [20]: Compound metabolized

Structure (SMILES): Cc1ccc(-c2nc3ccc(C)cn3c2CC(=O)N(C)C)cc1 [ZOLPIDEM]
- Bacterial Biotransformation [1]: Compound metabolized
- Bacterial Biotransformation [2]: Compound NOT metabolized
- Bacterial Biotransformation [3]: Compound NOT metabolized
- Bacterial Biotransformation [4]: Compound NOT metabolized
- Bacterial Biotransformation [5]: Compound NOT metabolized
- Bacterial Biotransformation [6]: Compound metabolized
- Bacterial Biotransformation [7]: Compound NOT metabolized
- Bacterial Biotransformation [8]: Compound NOT metabolized
- Bacterial Biotransformation [9]: Compound NOT metabolized
- Bacterial Biotransformation [10]: Compound metabolized
- Bacterial Biotransformation [11]: Compound NOT metabolized
- Bacterial Biotransformation [12]: Compound metabolized
- Bacterial Biotransformation [13]: Compound metabolized
- Bacterial Biotransformation [14]: Compound metabolized
- Bacterial Biotransformation [15]: Compound NOT metabolized
- Bacterial Biotransformation [16]: Compound metabolized
- Bacterial Biotransformation [17]: Compound NOT metabolized
- Bacterial Biotransformation [18]: Compound NOT metabolized
- Bacterial Biotransformation [19]: Compound NOT metabolized
- Bacterial Biotransformation [20]: Compound metabolized

Structure (SMILES): CCC(COC(=O)c1cc(OC)c(OC)c(OC)c1)(c1ccccc1)N(C)C.O=C(O)/C=C\C(=O)O (stereo not given)
- Bacterial Biotransformation [1]: Compound metabolized
- Bacterial Biotransformation [2]: Compound NOT metabolized
- Bacterial Biotransformation [3]: Compound metabolized
- Bacterial Biotransformation [4]: Compound NOT metabolized
- Bacterial Biotransformation [5]: Compound NOT metabolized
- Bacterial Biotransformation [6]: Compound metabolized
- Bacterial Biotransformation [7]: Compound NOT metabolized
- Bacterial Biotransformation [8]: Compound NOT metabolized
- Bacterial Biotransformation [9]: Compound NOT metabolized
- Bacterial Biotransformation [10]: Compound NOT metabolized
- Bacterial Biotransformation [11]: Compound NOT metabolized
- Bacterial Biotransformation [12]: Compound NOT metabolized
- Bacterial Biotransformation [13]: Compound metabolized
- Bacterial Biotransformation [14]: Compound metabolized
- Bacterial Biotransformation [15]: Compound metabolized
- Bacterial Biotransformation [16]: Compound metabolized
- Bacterial Biotransformation [17]: Compound NOT metabolized
- Bacterial Biotransformation [18]: Compound NOT metabolized
- Bacterial Biotransformation [19]: Compound NOT metabolized
- Bacterial Biotransformation [20]: Compound metabolized

Structure (SMILES): O=c1[nH]c2ccccc2n1C1CCN(CCCC(c2ccc(F)cc2)c2ccc(F)cc2)CC1 [PIMOZIDE]
- Bacterial Biotransformation [1]: Compound metabolized
- Bacterial Biotransformation [2]: Compound metabolized
- Bacterial Biotransformation [3]: Compound metabolized
- Bacterial Biotransformation [4]: Compound NOT metabolized
- Bacterial Biotransformation [5]: Compound metabolized
- Bacterial Biotransformation [6]: Compound metabolized
- Bacterial Biotransformation [7]: Compound metabolized
- Bacterial Biotransformation [8]: Compound NOT metabolized
- Bacterial Biotransformation [9]: Compound metabolized
- Bacterial Biotransformation [10]: Compound NOT metabolized
- Bacterial Biotransformation [11]: Compound NOT metabolized
- Bacterial Biotransformation [12]: Compound metabolized
- Bacterial Biotransformation [13]: Compound metabolized
- Bacterial Biotransformation [14]: Compound metabolized
- Bacterial Biotransformation [15]: Compound metabolized
- Bacterial Biotransformation [16]: Compound metabolized
- Bacterial Biotransformation [17]: Compound metabolized
- Bacterial Biotransformation [18]: Compound metabolized
- Bacterial Biotransformation [19]: Compound NOT metabolized
- Bacterial Biotransformation [20]: Compound metabolized

Structure (SMILES): Cc1cc2c(cc1S(N)(=O)=O)S(=O)(=O)CCC2
- Bacterial Biotransformation [1]: Compound NOT metabolized
- Bacterial Biotransformation [2]: Compound NOT metabolized
- Bacterial Biotransformation [3]: Compound NOT metabolized
- Bacterial Biotransformation [4]: Compound NOT metabolized
- Bacterial Biotransformation [5]: Compound NOT metabolized
- Bacterial Biotransformation [6]: Compound NOT metabolized
- Bacterial Biotransformation [7]: Compound NOT metabolized
- Bacterial Biotransformation [8]: Compound NOT metabolized
- Bacterial Biotransformation [9]: Compound NOT metabolized
- Bacterial Biotransformation [10]: Compound NOT metabolized
- Bacterial Biotransformation [11]: Compound NOT metabolized
- Bacterial Biotransformation [12]: Compound NOT metabolized
- Bacterial Biotransformation [13]: Compound NOT metabolized
- Bacterial Biotransformation [14]: Compound NOT metabolized
- Bacterial Biotransformation [15]: Compound NOT metabolized
- Bacterial Biotransformation [16]: Compound NOT metabolized
- Bacterial Biotransformation [17]: Compound NOT metabolized
- Bacterial Biotransformation [18]: Compound NOT metabolized
- Bacterial Biotransformation [19]: Compound NOT metabolized
- Bacterial Biotransformation [20]: Compound NOT metabolized

Structure (SMILES): CC[C@@H](CO)NC(=O)[C@@H]1C=C2c3cccc4c3c(cn4C)C[C@H]2N(C)C1.O=C(O)/C=C\C(=O)O [METHYSERGIDE MALEATE]
- Bacterial Biotransformation [1]: Compound NOT metabolized
- Bacterial Biotransformation [2]: Compound NOT metabolized
- Bacterial Biotransformation [3]: Compound NOT metabolized
- Bacterial Biotransformation [4]: Compound NOT metabolized
- Bacterial Biotransformation [5]: Compound NOT metabolized
- Bacterial Biotransformation [6]: Compound metabolized
- Bacterial Biotransformation [7]: Compound NOT metabolized
- Bacterial Biotransformation [8]: Compound NOT metabolized
- Bacterial Biotransformation [9]: Compound NOT metabolized
- Bacterial Biotransformation [10]: Compound NOT metabolized
- Bacterial Biotransformation [11]: Compound NOT metabolized
- Bacterial Biotransformation [12]: Compound NOT metabolized
- Bacterial Biotransformation [13]: Compound NOT metabolized
- Bacterial Biotransformation [14]: Compound metabolized
- Bacterial Biotransformation [15]: Compound metabolized
- Bacterial Biotransformation [16]: Compound NOT metabolized
- Bacterial Biotransformation [17]: Compound NOT metabolized
- Bacterial Biotransformation [18]: Compound NOT metabolized
- Bacterial Biotransformation [19]: Compound NOT metabolized
- Bacterial Biotransformation [20]: Compound NOT metabolized

Structure (SMILES): O=C(O)COCCN1CCN(C(c2ccccc2)c2ccc(Cl)cc2)CC1 (stereo not given) [CETIRIZINE]
- Bacterial Biotransformation [1]: Compound metabolized
- Bacterial Biotransformation [2]: Compound metabolized
- Bacterial Biotransformation [3]: Compound metabolized
- Bacterial Biotransformation [4]: Compound NOT metabolized
- Bacterial Biotransformation [5]: Compound metabolized
- Bacterial Biotransformation [6]: Compound metabolized
- Bacterial Biotransformation [7]: Compound metabolized
- Bacterial Biotransformation [8]: Compound metabolized
- Bacterial Biotransformation [9]: Compound metabolized
- Bacterial Biotransformation [10]: Compound metabolized
- Bacterial Biotransformation [11]: Compound metabolized
- Bacterial Biotransformation [12]: Compound metabolized
- Bacterial Biotransformation [13]: Compound metabolized
- Bacterial Biotransformation [14]: Compound metabolized
- Bacterial Biotransformation [15]: Compound metabolized
- Bacterial Biotransformation [16]: Compound metabolized
- Bacterial Biotransformation [17]: Compound NOT metabolized
- Bacterial Biotransformation [18]: Compound metabolized
- Bacterial Biotransformation [19]: Compound metabolized
- Bacterial Biotransformation [20]: Compound metabolized
